Reference: US20260092071A1, “COMPOUNDS AND COMPOSITIONS AS SMARCA2/4 DEGRADERS AND USES THEREOF” (REGENTS OF THE UNIVERSITY OF MICHIGAN, priority 2022, published 2026)

How the values were obtained:
[1] = molecular target: SMARCA2 (Homo sapiens, UniProt P51531); experiment: HiBit assay in engineered HT1080 CRISPR knock-in cell, 6 hrs (B series), SMARCA2; format: cell-based; details: 6 hrs incubation; for DC50 / SMARC A2 HT1080 HiBit Dmax (%): HT1080 CRISPR knock-in cells; for DC50: read-out: SMARC A2 HT1080 HiBit DC50; for Dmax: HT-1080, HT1080 CRISPR knock-in cells, read-out: SMARC A2 HT1080 HiBit Dmax (%)
Chain of SMARCA2 (P51531 whole entry): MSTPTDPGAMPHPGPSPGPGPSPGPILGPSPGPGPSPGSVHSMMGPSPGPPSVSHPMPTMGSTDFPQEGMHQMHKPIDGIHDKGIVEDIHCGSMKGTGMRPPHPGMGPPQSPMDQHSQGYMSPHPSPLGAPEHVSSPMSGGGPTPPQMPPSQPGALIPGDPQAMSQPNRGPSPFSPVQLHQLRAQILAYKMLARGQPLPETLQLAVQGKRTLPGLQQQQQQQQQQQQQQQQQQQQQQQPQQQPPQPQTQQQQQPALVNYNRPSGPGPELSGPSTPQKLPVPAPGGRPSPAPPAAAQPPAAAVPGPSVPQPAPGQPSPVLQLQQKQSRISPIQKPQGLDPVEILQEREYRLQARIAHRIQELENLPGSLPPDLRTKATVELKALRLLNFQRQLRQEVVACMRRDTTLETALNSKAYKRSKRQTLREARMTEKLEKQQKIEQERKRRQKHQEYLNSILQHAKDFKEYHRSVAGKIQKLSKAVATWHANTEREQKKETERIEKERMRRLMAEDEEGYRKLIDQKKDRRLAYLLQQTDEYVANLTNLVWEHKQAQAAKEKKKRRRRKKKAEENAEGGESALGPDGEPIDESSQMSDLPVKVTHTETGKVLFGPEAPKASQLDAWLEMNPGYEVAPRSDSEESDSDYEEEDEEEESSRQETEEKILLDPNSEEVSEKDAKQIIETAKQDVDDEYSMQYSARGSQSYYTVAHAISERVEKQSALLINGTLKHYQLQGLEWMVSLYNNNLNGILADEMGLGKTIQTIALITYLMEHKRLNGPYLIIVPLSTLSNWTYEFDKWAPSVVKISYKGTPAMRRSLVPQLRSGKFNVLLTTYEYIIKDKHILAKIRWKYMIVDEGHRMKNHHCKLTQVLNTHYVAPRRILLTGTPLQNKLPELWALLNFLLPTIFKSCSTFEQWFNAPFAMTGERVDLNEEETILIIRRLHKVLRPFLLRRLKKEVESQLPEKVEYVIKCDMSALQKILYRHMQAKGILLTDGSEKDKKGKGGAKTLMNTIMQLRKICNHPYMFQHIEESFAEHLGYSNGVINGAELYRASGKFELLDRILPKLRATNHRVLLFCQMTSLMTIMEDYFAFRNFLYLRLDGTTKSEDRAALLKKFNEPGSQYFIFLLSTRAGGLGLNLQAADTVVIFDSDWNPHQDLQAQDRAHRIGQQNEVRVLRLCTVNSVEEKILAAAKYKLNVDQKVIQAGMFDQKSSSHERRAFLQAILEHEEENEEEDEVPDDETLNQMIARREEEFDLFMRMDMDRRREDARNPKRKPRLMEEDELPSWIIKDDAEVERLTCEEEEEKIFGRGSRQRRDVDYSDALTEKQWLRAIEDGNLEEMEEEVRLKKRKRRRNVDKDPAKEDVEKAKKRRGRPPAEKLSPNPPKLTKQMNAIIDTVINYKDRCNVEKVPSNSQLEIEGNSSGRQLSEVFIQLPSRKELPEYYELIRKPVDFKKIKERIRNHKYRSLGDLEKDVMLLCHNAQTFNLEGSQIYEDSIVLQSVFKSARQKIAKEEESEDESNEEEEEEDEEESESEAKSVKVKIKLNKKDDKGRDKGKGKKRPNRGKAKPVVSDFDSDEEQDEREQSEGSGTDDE
Procedure, shortened: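 Using a 6 hr treatment window at 37° C and 5% CO2, tagged HT1080 knock-in cells were exposed to test compounds with DMSO vehicle held at 0.1%. Signal came from lytic LgBiT/substrate reagent added after incubation, with control wells lacking LgBiT, and was read as luminescence.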

[2] = molecular target: SMARCA4 (Homo sapiens, UniProt P51532); experiment: HiBit assay in engineered HT1080 CRISPR knock-in cell, 6 hrs (B series), SMARCA4; format: cell-based; details: 6 hrs incubation; for DC50 / SMARC A4 HT1080 HiBit Dmax(%): HT1080 CRISPR knock-in cells; for DC50: read-out: SMARC A4 HT1080 HiBit DC50; for Dmax: HT-1080, HT1080 CRISPR knock-in cells, read-out: SMARC A4 HT1080 HiBit Dmax(%)
Chain of SMARCA4 (P51532 whole entry): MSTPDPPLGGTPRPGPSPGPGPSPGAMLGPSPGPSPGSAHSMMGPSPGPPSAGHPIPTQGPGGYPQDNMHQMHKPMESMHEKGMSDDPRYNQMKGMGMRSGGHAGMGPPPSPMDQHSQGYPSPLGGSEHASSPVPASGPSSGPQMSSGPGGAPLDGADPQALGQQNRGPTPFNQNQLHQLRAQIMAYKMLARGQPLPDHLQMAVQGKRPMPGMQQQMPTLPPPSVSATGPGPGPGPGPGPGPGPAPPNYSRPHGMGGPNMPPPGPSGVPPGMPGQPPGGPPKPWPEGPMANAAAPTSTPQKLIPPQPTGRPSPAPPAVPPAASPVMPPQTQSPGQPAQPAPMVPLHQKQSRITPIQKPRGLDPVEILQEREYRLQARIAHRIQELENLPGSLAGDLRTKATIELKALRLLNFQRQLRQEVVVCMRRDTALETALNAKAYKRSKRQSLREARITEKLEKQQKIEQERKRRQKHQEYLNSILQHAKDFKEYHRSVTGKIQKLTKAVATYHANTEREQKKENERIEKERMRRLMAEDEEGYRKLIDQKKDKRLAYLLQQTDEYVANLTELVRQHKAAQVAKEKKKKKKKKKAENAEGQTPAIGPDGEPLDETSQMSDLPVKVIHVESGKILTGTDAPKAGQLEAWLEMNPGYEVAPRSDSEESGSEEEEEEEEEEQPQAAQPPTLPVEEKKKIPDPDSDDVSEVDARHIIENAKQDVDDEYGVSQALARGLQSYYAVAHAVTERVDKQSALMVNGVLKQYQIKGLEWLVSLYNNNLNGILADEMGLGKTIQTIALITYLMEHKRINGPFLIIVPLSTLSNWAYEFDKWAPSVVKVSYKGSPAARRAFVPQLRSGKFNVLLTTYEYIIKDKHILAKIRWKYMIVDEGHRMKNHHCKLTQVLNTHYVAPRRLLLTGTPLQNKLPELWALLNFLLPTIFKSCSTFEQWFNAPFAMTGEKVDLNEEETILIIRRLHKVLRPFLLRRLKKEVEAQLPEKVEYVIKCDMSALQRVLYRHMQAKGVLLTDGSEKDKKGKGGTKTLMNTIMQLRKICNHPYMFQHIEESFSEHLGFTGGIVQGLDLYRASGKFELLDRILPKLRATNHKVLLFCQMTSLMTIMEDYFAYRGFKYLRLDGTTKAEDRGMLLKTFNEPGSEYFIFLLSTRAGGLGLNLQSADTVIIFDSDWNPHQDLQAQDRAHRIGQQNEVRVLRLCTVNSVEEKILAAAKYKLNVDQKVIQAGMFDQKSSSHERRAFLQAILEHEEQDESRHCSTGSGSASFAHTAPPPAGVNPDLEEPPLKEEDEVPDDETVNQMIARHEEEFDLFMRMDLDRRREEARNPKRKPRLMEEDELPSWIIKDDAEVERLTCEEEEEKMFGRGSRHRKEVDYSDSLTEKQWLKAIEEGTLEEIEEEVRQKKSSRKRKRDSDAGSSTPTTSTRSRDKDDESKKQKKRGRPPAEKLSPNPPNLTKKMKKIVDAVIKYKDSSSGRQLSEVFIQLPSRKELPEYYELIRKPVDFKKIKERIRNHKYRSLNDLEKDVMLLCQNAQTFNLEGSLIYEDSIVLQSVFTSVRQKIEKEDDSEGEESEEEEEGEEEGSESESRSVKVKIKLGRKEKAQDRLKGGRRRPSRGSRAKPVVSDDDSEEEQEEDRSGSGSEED
Procedure, shortened: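 Protein abundance is measured in HiBiT-tagged HT1080 CRISPR knock-in cells after a 6 hr compound treatment (0.1% DMSO) by lytic Nano-Glo HiBiT luminescence.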

With `Cc1nc(C)c(-c2ccc([C@H](C)NC(=O)[C@@H]3C[C@@H](O)CN3C(=O)[C@@H](c3cc(N4CCC(c5cccc6c5C(C)(C)c5nc(=O)c7c(Cl)cccc7n5-6)CC4)no3)C(C)C)cc2)s1` [Compound B167, (2S,4R)-1-(2-(3-(4-(4-chloro-7,7-dimethyl-5-oxo-5,7-dihydroindolo[1,2-a]quinazolin-8-yl)piperidin-1-yl)isoxazol-5-yl)-3-methylbutanoyl)-N-((S)-1-(4-(2,4-dimethylthiazol-5-yl)phenyl)ethyl)-4-hydroxypyrrolidine-2-carboxamide] the DC50 [1] was less than 100 nM, the Dmax [1] was 70 to 90% and the DC50 [2] was 100 to 500 nM. It also gave a Dmax [2] of less than 50%.

For `Cc1cc(C(C(=O)N2C[C@H](O)C[C@H]2C(=O)N[C@@H](CCN2CCC(c3cccc4c3C(C)(C)c3nc(=O)c5c(Cl)cccc5n3-4)CC2)c2ccc(-c3scnc3C)cc2)C(C)C)on1` (stereo partly drawn) [Compound B165, (2S,4R)-N-((S)-3-(4-(4-chloro-7,7-dimethyl-5-oxo-5,7-dihydroindolo[1,2-a]quinazolin-8-yl)piperidin-1-yl)-1-(4-(4-methylthiazol-5-yl)phenyl)propyl)-4-hydroxy-1-(3-methyl-2-(3-methylisoxazol-5-yl)butanoyl)pyrrolidine-2-carboxamide], the “SMARC A2 HT1080 HiBit Dmax (%)” value [1] was “C (C (50-69% degradation))”, the DC50 [1] was 100 to 500 nM and the “SMARC A4 HT1080 HiBit Dmax(%)” value [2] was “C (C (50-69% degradation))”. For the same compound, the DC50 [2] was 100 to 500 nM.

Compound `Cc1ncsc1-c1ccc([C@H](C)NC(=O)[C@@H]2C[C@@H](O)CN2C(=O)[C@@H](NC(=O)C23CCC(CN4CCC(c5ccc6c(c5)C(C)(C)c5nc(=O)c7c(Cl)cccc7n5-6)CC4)(CC2)C3)C(C)(C)C)cc1` [Compound B18, (2S,4R)-1-((S)-2-(4-((4-(4-chloro-7,7-dimethyl-5-oxo-5,7-dihydroindolo[1,2-a]quinazolin-9-yl)piperidin-1-yl)methyl)bicyclo[2.2.1]heptane-1-carboxamido)-3,3-dimethylbutanoyl)-4-hydroxy-N-((S)-1-(4-(4-methylthiazol-5-yl)phenyl)ethyl)pyrrolidine-2-carboxamide] has a DC50 [1] of less than 100 nM, a Dmax [1] greater than 90% and a DC50 [2] of less than 100 nM. For the same compound, the Dmax [2] was 70 to 90%.

`Cc1cc([C@H](C(=O)N2C[C@H](O)C[C@H]2C(=O)N[C@@H](C)c2ccc(-c3scnc3C(=O)NCCCCOCCN3CCC(c4ccc5c(c4)-n4c(nc(=O)c6c(Cl)cccc64)C5(C)C)CC3)cc2)C(C)C)on1` [Compound B147, N-(4-(2-(4-(4-chloro-7,7-dimethyl-5-oxo-5,7-dihydroindolo[1,2-a]quinazolin-10-yl)piperidin-1-yl)ethoxy)butyl)-5-(4-((S)-1-((2S,4R)-4-hydroxy-1-((R)-3-methyl-2-(3-methylisoxazol-5-yl)butanoyl)pyrrolidine-2-carboxamido)ethyl)phenyl)thiazole-4-carboxamide] showed a DC50 [1] of 100 to 500 nM, a Dmax [1] of 50 to 69% and a DC50 [2] of 501 to 1000 nM. It also gave a Dmax [2] of 50 to 69%.

Work on `Cc1ncsc1-c1ccc([C@H](C)NC(=O)[C@@H]2C[C@@H](O)CN2C(=O)[C@@H](c2cc(OCCc3cccc4c3C(C)(C)c3nc(=O)c5c(Cl)cccc5n3-4)no2)C(C)C)cc1` [Compound B116, (2S,4R)-1-((R)-2-(3-(2-(4-chloro-7,7-dimethyl-5-oxo-5,7-dihydroindolo[1,2-a]quinazolin-8-yl)ethoxy)isoxazol-5-yl)-3-methylbutanoyl)-4-hydroxy-N—((S)-1-(4-(4-methylthiazol-5-yl)phenyl)ethyl)pyrrolidine-2-carboxamide] yielded a DC50 [1] of less than 100 nM, a Dmax [1] of 70 to 90% and a DC50 [2] greater than 1000 nM. It also gave a Dmax [2] of less than 50%.

`Cc1ncsc1-c1ccc([C@H](C)NC(=O)[C@@H]2C[C@@H](O)CN2C(=O)[C@@H](NC(=O)CCCN2CCC(c3ccc4c(c3)-n3c(nc(=O)c5c(Cl)cccc53)C4(C)C)CC2)C(C)(C)C)cc1` [Compound B45, (2S,4R)-1-((S)-2-(4-(4-(4-chloro-7,7-dimethyl-5-oxo-5,7-dihydroindolo[1,2-a]quinazolin-10-yl)piperidin-1-yl)butanamido)-3,3-dimethylbutanoyl)-4-hydroxy-N-((S)-1-(4-(4-methylthiazol-5-yl)phenyl)ethyl)pyrrolidine-2-carboxamide] showed a DC50 [1] of 100 to 500 nM, a Dmax [1] of 70 to 90% and a DC50 [2] greater than 1000 nM. It also gave a Dmax [2] of less than 50%.

`Cc1ncsc1-c1ccc([C@H](C)NC(=O)[C@@H]2C[C@@H](O)CN2C(=O)[C@H](c2cc(N3CCC(C(=O)N4CCC(c5ccc6c(c5)C(C)(C)c5nc(=O)c7c(Cl)cccc7n5-6)CC4)CC3)no2)C(C)C)cc1` [Compound B89, (2S,4R)-1-(2-(3-(4-(4-(4-chloro-7,7-dimethyl-5-oxo-5,7-dihydroindolo[1,2-a]quinazolin-9-yl)piperidine-1-carbonyl)piperidin-1-yl)isoxazol-5-yl)-3-methylbutanoyl)-4-hydroxy-N—((S)-1-(4-(4-methylthiazol-5-yl)phenyl)ethyl)pyrrolidine-2-carboxamide] gave a DC50 [1] of less than 100 nM, a Dmax [1] greater than 90% and a DC50 [2] of 100 to 500 nM. The Dmax [2] was greater than 90%.

In the case of `Cc1ncsc1-c1ccc([C@H](C)NC(=O)[C@@H]2C[C@@H](O)CN2C(=O)[C@@H](c2cc(OCCCN3CCC(c4ccc5c(c4)-n4c(nc(=O)c6c(Cl)cccc64)C5(C)C)CC3)no2)C(C)C)cc1` [Compound B26, (2S,4R)-1-((R)-2-(3-(3-(4-(4-chloro-7,7-dimethyl-5-oxo-5,7-dihydroindolo[1,2-a]quinazolin-10-yl)piperidin-1-yl)propoxy)isoxazol-5-yl)-3-methylbutanoyl)-4-hydroxy-N-((S)-1-(4-(4-methylthiazol-5-yl)phenyl)ethyl)pyrrolidine-2-carboxamide], the DC50 [1] is reported as less than 100 nM, the Dmax [1] is reported as greater than 90% and the DC50 [2] is reported as less than 100 nM. For the same compound, the Dmax [2] was greater than 90%.

Work on `Cc1ncsc1-c1ccc(C(CN2CCOCC2)NC(=O)[C@@H]2C[C@@H](O)CN2C(=O)[C@@H](c2cc(O[C@H]3CC[C@H](CN4CCN(c5ccc6c(c5)-n5c(nc(=O)c7c(Cl)cccc75)C6(C)C)CC4)CC3)no2)C(C)C)cc1` (stereo partly drawn) [Compound B163, (2S,4R)-1-((R)-2-(3-(((11,4R)-4-((4-(4-chloro-7,7-dimethyl-5-oxo-5,7-dihydroindolo[1,2-a]quinazolin-10-yl)piperazin-1-yl)methyl)cyclohexyl)oxy)isoxazol-5-yl)-3-methylbutanoyl)-4-hydroxy-N-((R)-1-(4-(4-methylthiazol-5-yl)phenyl)-2-morpholinoethyl)pyrrolidine-2-carboxamide] yielded a DC50 [1] of less than 100 nM, a Dmax [1] greater than 90% and a DC50 [2] of less than 100 nM. For the same compound, the Dmax [2] was greater than 90%.

For `Cc1ncsc1-c1ccc([C@H](C)NC(=O)[C@@H]2C[C@@H](O)CN2C(=O)[C@@H](NC(=O)C2CC(N3CCC(c4ccc5c(c4)C(C)(C)c4nc(=O)c6c(Cl)cccc6n4-5)CC3)C2)C(C)(C)C)cc1` (stereo partly drawn) [Compound B14, (2S,4R)-1-((2S)-2-(3-(4-(4-chloro-7,7-dimethyl-5-oxo-5,7-dihydroindolo[1,2-a]quinazolin-9-yl)piperidin-1-yl)cyclobutane-1-carboxamido)-3,3-dimethylbutanoyl)-4-hydroxy-N-((S)-1-(4-(4-methylthiazol-5-yl)phenyl)ethyl)pyrrolidine-2-carboxamide], the “SMARC A2 HT1080 HiBit Dmax (%)” value [1] was “A (A (>90% degradation))”, the DC50 [1] was less than 100 nM and the “SMARC A4 HT1080 HiBit Dmax(%)” value [2] was “B (B (70-90% degradation))”. The DC50 [2] was 100 to 500 nM.

With `Cc1ncsc1-c1ccc([C@H](C)NC(=O)[C@@H]2C[C@@H](O)CN2C(=O)[C@H](C(C)C)n2cc(CCCN3CCC(c4ccc5c(c4)-n4c(nc(=O)c6c(Cl)cccc64)C5(C)C)CC3)nn2)cc1` [Compound B58, (2S,4R)-1-((S)-2-(4-(3-(4-(4-chloro-7,7-dimethyl-5-oxo-5,7-dihydroindolo[1,2-a]quinazolin-10-yl)piperidin-1-yl)propyl)-1H-1,2,3-triazol-1-yl)-3-methylbutanoyl)-4-hydroxy-N-((S)-1-(4-(4-methylthiazol-5-yl)phenyl)ethyl)pyrrolidine-2-carboxamide] the DC50 [1] was less than 100 nM, the Dmax [1] was greater than 90% and the DC50 [2] was less than 100 nM. The Dmax [2] was 70 to 90%.

In the case of `Cc1ncsc1-c1ccc([C@H](C)NC(=O)C2C[C@@H](O)CN2C(=O)[C@@H](c2cc(OCCCCN3CCC(c4cccc5c4C(C)(C)c4nc(=O)c6c(Cl)cccc6n4-5)CC3)no2)C(C)C)cc1` (stereo in doubt) [Compound B98, (2S,4R)-1-(2-(3-(4-(4-(4-chloro-7,7-dimethyl-5-oxo-5,7-dihydroindolo[1,2-a]quinazolin-8-yl)piperidin-1-yl)butoxy)isoxazol-5-yl)-3-methylbutanoyl)-4-hydroxy-N-((S)-1-(4-(4-methylthiazol-5-yl)phenyl)ethyl)pyrrolidine-2-carboxamide], the DC50 [1] is reported as less than 100 nM, the Dmax [1] is reported as 70 to 90% and the DC50 [2] is reported as 100 to 500 nM. It also gave a Dmax [2] of less than 50%.

`Cc1ncsc1-c1ccc2c(c1)CC[C@H]2NC(=O)[C@@H]1C[C@@H](O)CN1C(=O)[C@@H](n1cc([C@H]2CC[C@H](CN3CCC(c4ccc5c(c4)-n4c(nc(=O)c6c(Cl)cccc64)C5(C)C)CC3)CC2)nn1)C(C)(C)C` [Compound B122, (2S,4R)-1-((S)-2-(4-((1r,4S)-4-((4-(4-chloro-7,7-dimethyl-5-oxo-5,7-dihydroindolo[1,2-a]quinazolin-10-yl)piperidin-1-yl)methyl)cyclohexyl)-1H-1,2,3-triazol-1-yl)-3,3-dimethylbutanoyl)-4-hydroxy-N-((R)-5-(4-methylthiazol-5-yl)-2,3-dihydro-1H-inden-1-yl)pyrrolidine-2-carboxamide] gave a DC50 [1] of 100 to 500 nM, a Dmax [1] of 70 to 90% and a DC50 [2] of 100 to 500 nM. The Dmax [2] was less than 50%.
